Measurements from patent US12630511B2, “Benzamide derivative, preparation method therefor, and pharmaceutical composition comprising same as active ingredient for prevention or treatment of cancer” (KOREA RESEARCH INSTITUTE OF CHEMICAL TECHNOLOGY, priority 2019, dated 2026).

Columns and labels:
[1] = target: T1, EGFR L858R/T790M/C797S mutant enzyme (Homo sapiens, UniProt P00533, C797S/L858R/T790M); experiment: Inhibitory capacity against EGFR L858R/T790M/C797S mutant enzyme (Cisbio HTRF); type: biochemical; settings: for IC50: HTRF, 1 mM ATP, 37° C. for 2 hours, 7 concentrations
T1 construct: purchased SignalChem
T1 sequence (P00533 25-1210 T790M/C797S/L858R): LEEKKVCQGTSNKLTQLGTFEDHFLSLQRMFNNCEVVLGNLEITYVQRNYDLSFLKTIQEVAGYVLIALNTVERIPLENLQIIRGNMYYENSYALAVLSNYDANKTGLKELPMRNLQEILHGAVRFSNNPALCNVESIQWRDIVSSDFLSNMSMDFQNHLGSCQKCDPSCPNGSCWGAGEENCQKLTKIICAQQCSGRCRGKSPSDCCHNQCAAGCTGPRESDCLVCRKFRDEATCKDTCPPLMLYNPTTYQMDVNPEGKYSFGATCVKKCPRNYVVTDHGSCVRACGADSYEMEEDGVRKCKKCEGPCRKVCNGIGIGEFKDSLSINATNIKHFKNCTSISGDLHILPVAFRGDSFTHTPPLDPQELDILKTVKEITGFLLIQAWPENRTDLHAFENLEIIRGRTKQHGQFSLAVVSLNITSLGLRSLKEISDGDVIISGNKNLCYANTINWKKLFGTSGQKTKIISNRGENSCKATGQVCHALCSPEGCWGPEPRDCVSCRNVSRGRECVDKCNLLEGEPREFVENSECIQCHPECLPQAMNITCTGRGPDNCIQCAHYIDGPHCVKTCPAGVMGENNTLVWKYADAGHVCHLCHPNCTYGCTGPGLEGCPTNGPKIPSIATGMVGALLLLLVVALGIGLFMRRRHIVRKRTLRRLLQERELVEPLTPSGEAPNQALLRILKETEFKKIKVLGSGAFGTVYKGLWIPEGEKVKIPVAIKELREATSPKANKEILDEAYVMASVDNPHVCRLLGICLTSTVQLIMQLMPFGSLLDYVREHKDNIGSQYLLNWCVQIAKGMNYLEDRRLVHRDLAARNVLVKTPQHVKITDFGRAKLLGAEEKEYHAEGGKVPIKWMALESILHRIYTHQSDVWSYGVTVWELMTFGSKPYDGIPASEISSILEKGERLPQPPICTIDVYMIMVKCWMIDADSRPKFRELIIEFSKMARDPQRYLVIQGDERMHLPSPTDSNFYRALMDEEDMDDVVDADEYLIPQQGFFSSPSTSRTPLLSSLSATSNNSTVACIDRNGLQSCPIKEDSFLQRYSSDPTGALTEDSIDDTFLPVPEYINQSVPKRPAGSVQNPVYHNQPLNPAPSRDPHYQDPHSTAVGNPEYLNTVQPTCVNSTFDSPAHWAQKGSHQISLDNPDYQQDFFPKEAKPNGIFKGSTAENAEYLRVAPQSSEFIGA
Procedure: Experimental Example 1: Measurement of Inhibitory Capacity Against EGFR L858R/T790M/C797S
In order to confirm the inhibitory capacity of the compounds prepared in Examples 1 to 13 provided in one aspect of the present invention against EGFR mutation, the following experiment was performed.
Particularly, the activity of the compounds of the present invention against EGFR mutant enzyme was measured using the HTRF system of Cisbio Co. As an EGFR L858R/T790M/C797S mutant enzyme, a protein provided by SignalChem was purchased and used as an enzyme source.
The composition of the assay buffer used for the activity measurement was as follows: 50 mM Tris-HCl (pH 7.5), 100 mM NaCl, 7.5 mM MgCl2, 3 mM KCl, 0.01% Tween 20, 0.1% BSA, and 1 mM DTT. Herein, an enzyme reaction was performed using a peptide substrate labeled with ATP at the concentration of 1 mM and biotin at the concentration of 0.5 μM. The analysis of the EGFR activity inhibitory effect of the compounds was performed according to the following analytical reaction recipe. • Component 1: 4 μl of EGFR mutant enzyme • Component 2: 2 μl of compound solution • Component 3: 4 μl of ATP and biotin-labeled peptide mixture
The enzyme reaction was initiated by mixing the component 1 and the component 2 first and then adding the component 3 thereto. After reacting the mixture at 37° C. for 2 hours, 10 μl of a measurement solution consisting of streptavidin-XL665 and europium-labeled anti-phosphotyrosine antibody provided by Cisbio was added to the enzyme reaction solution, followed by reaction at room temperature for 1 hour. Finally, the ratio of the fluorescence values at 615 nm and 665 nm was calculated using Envision equipment of Perkin-Elmer to quantitatively measure the enzyme activity and confirm the inhibitory ability of the compounds. The values measured at 7 concentrations of the compound were analyzed using Prism program (version 5.01, Graphpad Software, Inc.), and the IC50 value, an index of the inhibitory ability of the compound, was calculated.

[2] = system: Ba/F3 EGFR L858R/T790M (LT) cells; experiment: Anticancer activity in BaF3 cells overexpressing EGFR L858R/T790M (CellTiter-Glo), alone or combined with cetuximab; type: cell-based; settings: cells overexpressed with EGFR L858R/T790M; combined with cetuximab; 72 hours; FIG. 1 and FIG. 2
Procedure: (§1) Experimental Example 2: Evaluation of Anticancer Activity in BaF3 Cells Overexpressed with Various EGFR Mutations
(§2) In order to confirm that the compound represented by formula 1 according to the present invention acted as an allosteric inhibitor against EGFR wild-type and mutants, the inhibitory effect on EGFR wild-type and mutants in Ba/F3 cell line was evaluated. In addition, in order to evaluate the cellular activity when the compound according to the present invention was co-administered with an existing drug, the cellular activity according to the combined administration was evaluated using Cetuximab used alone or in combination with chemotherapy in metastatic colorectal cancer and metastatic squamous head and neck cancer.
(§3) Particularly, the activity of the compound of the present invention against the wild-type and mutant Ba/F3 EGFR cell lines was measured as follows using the CellTiter-Glo system of Promega. […]
(§4) BaF3 cells were aliquoted in a 96 well cell culture plate at the density of 2500 cells/50 ul per well, to which 50 ul of the compound represented by formula 1 was treated at the concentrations of 0, 0.03, 0.1, 0.3, and 1 μM. […] Finally, the ratio of the fluorescence values at 570 nm was quantitatively measured using a luminometer, and the ability of the compound to inhibit cell viability was confirmed. […]

[3] = system: Ba/F3 L858R/T790M/C797S (LTC) cells; experiment: Anticancer activity in BaF3 cells overexpressing EGFR L858R/T790M/C797S (CellTiter-Glo), alone or combined with cetuximab; type: cell-based; settings: cells overexpressed with EGFR L858R/T790M/C797S; combined with cetuximab; 72 hours; FIG. 1 and FIG. 2
Procedure: as §1, §2, §3, §4

IC50 [1] [nM]	SMILES	other results
46	O=C(N[C@@H](c1cc2ccccc2[nH]1)c1cc(F)ccc1O)c1cccc(-c2ccc(N3CCNCC3)cc2)c1 [Example 1, (R)—N-((5-fluoro-2-hydroxyphenyl)(1H-indole-2-yl)methyl)-4′-(piperazine-1-yl)-[1,1′-biphenyl]-3-carboxamide]	–
61	CC(=O)N1CCN(c2ccc(-c3cccc(C(=O)N[C@@H](c4cc5ccccc5[nH]4)c4cc(F)ccc4O)c3)cc2)CC1 [Example 2, (R)-4′-(4-acetylpiperazine-1-yl)-N-((5-fluoro-2-hydroxyphenyl)(1H-indole-2-yl)methyl)-[1,1′-biphenyl]-3-carboxamide]	–
7	NC1CCN(c2ccc(-c3cccc(C(=O)N[C@@H](c4cc5ccccc5[nH]4)c4cc(F)ccc4O)c3)cc2)CC1 [Example 3, (R)-4′-(4-aminopiperidine-1-yl)-N-((5-fluoro-2-hydroxyphenyl)(1H-indole-2-yl)methyl)-[1,1′-biphenyl]-3-carboxamide]	inhibitory capacity against EGFR L858R/T790M/C797S mutation (in words) ([1]; summary of Table 2): excellent inhibitory capacity; anticancer activity in combination with cetuximab (cell viability relative to cetuximab only) [2]: synergistic anticancer activity; anticancer activity in combination with cetuximab (cell viability relative to cetuximab only) [3]: synergistic anticancer activity
640	NC1CCN(c2ccc(-c3cccc(C(=O)N[C@@H](c4cc5ccccc5[nH]4)c4cc(Cl)ccc4O)c3)cc2)CC1 [Example 4, (R)-4′-(4-aminopiperidine-1-yl)-N-((5-chloro-2-hydroxyphenyl)(1H-indole-2-yl)methyl)-[1,1′-biphenyl]-3-carboxamide]	–
2600	CN1CCN(C2CCN(c3ccc(-c4cccc(C(=O)N[C@@H](c5cc6ccccc6[nH]5)c5cc(F)ccc5O)c4)cc3)CC2)CC1 [Example 5, (R)—N-((5-fluoro-2-hydroxyphenyl)(1H-indole-2-yl)methyl)-4′-(4-(4-methylpiperazine-1-yl)piperidine-1-yl)-[1,1′-biphenyl]-3-carboxamide]	–
190	O=C(N[C@@H](c1cc2ccccc2[nH]1)c1cc(F)ccc1O)c1cccc(-c2ccc(N3CCC(N4CCNCC4)CC3)cc2)c1 [Example 6, (R)—N-((5-fluoro-2-hydroxyphenyl)(1H-indole-2-yl)methyl)-4′-(4-(piperazine-1-yl)piperidine-1-yl)-[1,1′-biphenyl]-3-carboxamide]	–
160	CN(C)C1CCN(c2ccc(-c3cccc(C(=O)N[C@@H](c4cc5ccccc5[nH]4)c4cc(F)ccc4O)c3)cc2)CC1 [Example 7, (R)-4′-(4-(dimethylamino)piperidine-1-yl)-N-((5-fluoro-2-hydroxyphenyl)(1H-indole-2-yl)methyl)-[1,1′-biphenyl]-3-carboxamide]	–
140	O=C(N[C@@H](c1cc2ccccc2[nH]1)c1cc(F)ccc1O)c1cccc(-c2ccc(N3CCN(C4CCNCC4)CC3)cc2)c1 [Example 8, (R)—N-((5-fluoro-2-hydroxyphenyl)(1H-indole-2-yl)methyl)-4′-(4-(piperidine-4-yl)piperazine-1-yl)-[1,1′-biphenyl]-3-carboxamide]	–
72	CN1CCC(N2CCN(c3ccc(-c4cccc(C(=O)N[C@@H](c5cc6ccccc6[nH]5)c5cc(F)ccc5O)c4)cc3)CC2)CC1 [Example 9, (R)—N-((5-fluoro-2-hydroxyphenyl)(1H-indole-2-yl)methyl)-4′-(4-(1-methylpiperidine-4-yl)piperazine-1-yl)-[1,1′-biphenyl]-3-carboxamide]	–
5900	O=C(N[C@@H](c1cc2ccccc2[nH]1)c1cc(F)ccc1O)c1cccc(-c2ccc(N3CCCC3)cc2)c1 [Example 10, (R)—N-((5-fluoro-2-hydroxyphenyl)(1H-indole-2-yl)methyl)-4′-(pyrrolidine-1-yl)-[1,1′-biphenyl]-3-carboxamide]	–
160	N[C@@H]1CCN(c2ccc(-c3cccc(C(=O)N[C@@H](c4cc5ccccc5[nH]4)c4cc(F)ccc4O)c3)cc2)C1 [Example 11, 4′-((R)-3-aminopyrrolidine-1-yl)-N—((R)-(5-fluoro-2-hydroxyphenyl)(1H-indole-2-yl)methyl)-[1,1′-biphenyl]-3-carboxamide]	–
180	N[C@H]1CCN(c2ccc(-c3cccc(C(=O)N[C@@H](c4cc5ccccc5[nH]4)c4cc(F)ccc4O)c3)cc2)C1 [Example 12, 4′-((S)-3-aminopyrrolidine-1-yl)-N—((R)-(5-fluoro-2-hydroxyphenyl)(1H-indole-2-yl)methyl)-[1,1′-biphenyl]-3-carboxamide]	–
> 10000	N[C@H]1CCN(c2ccc(-c3cccc(C(=O)N[C@@H](c4cc5ccccc5[nH]4)c4cc(Cl)ccc4O)c3)cc2)C1 [Example 13, 4′-((S)-3-aminopyrrolidine-1-yl)-N—((R)-(5-chloro-2-hydroxyphenyl)(1H-indole-2-yl)methyl)-[1,1′-biphenyl]-3-carboxamide]	–
